Experimental data taken from patent US4465772A, “Method for disinfecting and washing of immobilized lactase” (priority 1980, dated 1984).
Read-outs that look alike come from different tables or passages of the source.

How the values were obtained:
[1] = biological target: T1, immobilized lactase (lactase derived from Aspergillus oryzae) (Aspergillus oryzae, UniProt Q2UCU3); experiment: Residual enzyme activity of immobilized lactase after immersion in disinfectant solutions; type: biochemical; conditions: for remaining activity at 1 % / remaining activity at 0.1 % / Residual enzyme activity (relative ratio, %) after immersion for 7 days / Residual enzyme activity (relative ratio, %) after immersion for 30 days / remaining activity at 0.01 % / remaining activity at 70 %: 18°-20° C.; for remaining activity at 0.1 %: chemical 0.1%; for remaining activity at 0.01 %: chemical 0.01%; for remaining activity at 70 %: chemical 70%
T1 construct: host or cells: Aspergillus oryzae
Source text: As the immobilized lactase was used one prepared by using a macroporous phenol-formaldehyde type amphoteric ion-exchange resin (particle size: 250-840μ) as the carrier, making the same adsorb the lactase derived from Aspergillus oryzae and carrying out the glutaraldehyde treatment to cause immobilization by covalent linkage [EPC publication No. 26672 (published on Apr. 8, 1981)].
(2) Residual enzyme activity
[…] […] The sample was sufficiently washed with an excessively large amount of water and a 0.05 M acetate buffer solution at pH 4.5 and then the residual activity was measured.
In 30 ml of lactose solution having a concentration of 13.3 (W/V) % prepared by dissolving lactose in a 0.05 M acetate buffer solution of pH 4.5 was immersed 0.2-0.25 ml of an immobilized lactase. The reaction was allowed to proceed at 30° C. under reciprocating shaking (more than 100 rpm with an amplitude larger than 3.5 cm) for 15 minutes. Then the amount of glucose produced was determined with a glucose oxidase-peroxidase-dye system. The amount of enzyme which produces 1μ mol of glucose per minute is defined as one unit (1 ILU). The dry weight of an immobilized lactase is determined as mentioned below. That is, after the termination of the reaction, the immobilized lactase was filtered, dried at 50° C. under reduced pressure for 8 hours or more, placed in a desiccator at room temperature (18°-25° C.) for 1.5 hours or more, the weight thereof was then measured and this value is regarded as the dry weight of the immobilized lactase. The activity of an immobilized lactase is represented by the unit per gram of dry weight (1 ILU/g-IML).

[2] = test system: Mixture of five strains separated from the putrefied milk; experiment: Disinfecting power (number of viable cells); type: cell-based; conditions: initial 10^5-10^6/ml
Experimental: (1) Disinfecting power (number of viable cells)
Milk obtained commercially was putrefied. Mixture of five strains separated from the putrefied milk was suspended in a 0.2 % bouillon solution (pH: 7.0) so that the number of viable cells attains to 10^5 -10^6 /ml. To this suspension was added an equal amount of an undiluted solution having a concentration of each chemical twice as high as that to be applied. A cotton plug was corked to each container and sampling was carried out after 1 hour and 7 days. The sample was diluted at need and plating on the standard agaragar culture medium was effected to count the number of colonies.
The symbols related to the number of viable cells designate as follows: […]

[3] = 168 h, chemical 1%, relative to 860 ILU/g-IML before immersion, read-out: Residual enzyme activity (relative ratio, %) after immersion for 7 days
[4] = 720 h, chemical 1%, relative to 860 ILU/g-IML before immersion, read-out: Residual enzyme activity (relative ratio, %) after immersion for 30 days
[5] = 168 h, relative to 860 ILU/g-IML, read-out: Residual enzyme activity (relative ratio, %) after immersion for 7 days
[6] = 720 h, relative to 860 ILU/g-IML, read-out: Residual enzyme activity (relative ratio, %) after immersion for 30 days
[7] = chemical 10%, relative to 860 ILU/g-IML
[8] = concentration of chemical 0.01%
[9] = chemical 1%, relative to 860 ILU/g-IML before immersion

T1 sequence (Q2UCU3 19-1005): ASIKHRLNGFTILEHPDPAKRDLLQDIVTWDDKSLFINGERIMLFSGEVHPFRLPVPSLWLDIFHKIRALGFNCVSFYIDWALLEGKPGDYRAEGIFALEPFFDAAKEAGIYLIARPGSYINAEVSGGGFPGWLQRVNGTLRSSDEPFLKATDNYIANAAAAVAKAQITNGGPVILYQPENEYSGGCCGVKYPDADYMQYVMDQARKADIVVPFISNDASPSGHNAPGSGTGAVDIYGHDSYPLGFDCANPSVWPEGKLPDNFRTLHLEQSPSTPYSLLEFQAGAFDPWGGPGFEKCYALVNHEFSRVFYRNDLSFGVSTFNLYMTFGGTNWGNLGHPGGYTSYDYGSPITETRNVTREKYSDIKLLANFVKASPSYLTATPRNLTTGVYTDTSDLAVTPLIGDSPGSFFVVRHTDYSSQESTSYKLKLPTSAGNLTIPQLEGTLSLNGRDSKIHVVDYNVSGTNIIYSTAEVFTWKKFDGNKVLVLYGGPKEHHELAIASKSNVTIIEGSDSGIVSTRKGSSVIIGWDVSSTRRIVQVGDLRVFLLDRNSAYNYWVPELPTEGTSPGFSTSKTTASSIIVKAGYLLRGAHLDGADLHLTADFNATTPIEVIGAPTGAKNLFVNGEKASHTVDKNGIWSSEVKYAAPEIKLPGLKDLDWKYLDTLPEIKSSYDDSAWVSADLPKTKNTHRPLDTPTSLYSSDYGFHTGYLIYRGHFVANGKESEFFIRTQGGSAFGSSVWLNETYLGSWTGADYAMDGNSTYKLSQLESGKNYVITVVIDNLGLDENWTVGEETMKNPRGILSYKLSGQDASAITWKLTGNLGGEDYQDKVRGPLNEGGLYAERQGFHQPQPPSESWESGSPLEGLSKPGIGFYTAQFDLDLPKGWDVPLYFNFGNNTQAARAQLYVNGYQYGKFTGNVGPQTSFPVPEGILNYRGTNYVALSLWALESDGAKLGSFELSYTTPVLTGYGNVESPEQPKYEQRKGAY

Row | SMILES | remaining activity at 1 % [1, 3] [%] | remaining activity at 1 % [1, 4] [%] | Number of viable cells after 1 hr. ([2]; concentration of chemical 1%) | Number of viable cells after 7 days ([2]; concentration of chemical 1%) | also measured
1 | O=C(O)CC(O)C(=O)O (stereo not shown) [Malic acid] | 101 | 100 | ⊖ | ⊖ | 
2 | CC(=O)C1C(=O)C=C(C)OC1=O (stereo not shown) [Dehydroacetic acid] |  |  |  |  | remaining activity at 0.1 % [1, 5]: 98%; remaining activity at 0.1 % [1, 6]: 102%; Number of viable cells after 1 hr. ([2]; concentration of chemical 0.1%): ⊖; Number of viable cells after 7 days ([2]; concentration of chemical 0.1%): ⊖
3 | [Cl-].[Na+] [Sodium chloride] |  |  |  |  | Residual enzyme activity (relative ratio, %) after immersion for 7 days [1, 7]: 100%; Residual enzyme activity (relative ratio, %) after immersion for 30 days [1, 7]: 98%; Number of viable cells after 1 hr. ([2]; concentration of chemical 10%): ⊖ to ⊕; Number of viable cells after 7 days ([2]; concentration of chemical 10%): ⊖
4 | CC(O)C(=O)O (stereo not shown) [Lactic acid] | 103 | 101 | ⊖ to ⊕ | ⊖ | decrease of activity of immobilized lactase on immersion ([1]; 1% solution, five months at room temperature (18°-25° C.)): completely no decrease of activity
5 | OCl [Sodium hypochlorite] |  |  |  |  | decrease of activity of immobilized lactase on immersion ([1]; 0.01% solution, immersed for a long period at 18°-20° C.): decrease of activity to some extent; remaining activity at 0.01 % [1, 5]: 96%; remaining activity at 0.01 % [1, 6]: 92%; Number of viable cells after 1 hr. [2, 8]: ⊖; Number of viable cells after 7 days [2, 8]: ⊖
6 | CCO [Ethyl alcohol] |  |  |  |  | decrease of activity of immobilized lactase on immersion ([1]; 70% solution, immersed for a long period at 18°-20° C.): decrease of activity to some extent; remaining activity at 70 % [1, 5]: 84%; remaining activity at 70 % [1, 6]: 67%; Number of viable cells after 1 hr. ([2]; concentration of chemical 70%): ⊖; Number of viable cells after 7 days ([2]; concentration of chemical 70%): ⊖
7 | CC(=O)O [Acetic acid] | 102 | 100 | ⊖ | ⊖ | 
8 | O=CCCCC=O [Glutaraldehyde] | 102 | 98 | ⊖ | ⊖ | 
9 | OO [35% H2 O2 solution, hydrogen peroxide] |  |  | ⊖ | ⊖ | Residual enzyme activity (relative ratio, %) after immersion for 7 days [1, 9]: 100%; Residual enzyme activity (relative ratio, %) after immersion for 30 days [1, 9]: 98%
10 | C/C=C/C=C/C(=O)[O-].[K+] [Potassium sorbate] | 103 | 101 | ⊖ | ⊖ | 
